Assay results taken from the supplement of paper PMC10307832.

Assays:
Experiment in all cases: relative viability (nuclei count vs DMSO), 5 days (fraction); higher = more cells survive
[1] = compound: C[C@@H](C(=O)N[C@@H](C1CCCCC1)C(=O)N2CCC[C@H]2C(=O)N[C@@H]3[C@@H](CC4=CC=CC=C34)OCC#CC#CCO[C@@H]5CC6=CC=CC=C6[C@@H]5NC(=O)[C@@H]7CCCN7C(=O)[C@H](C8CCCCC8)NC(=O)[C@H](C)NC)NC [AZD5582] + CC(=O)Nc1cccc(-n2c(=O)n(C3CC3)c(=O)c3c(Nc4ccc(I)cc4F)n(C)c(=O)c(C)c32)c1 [Trametinib] (partner 0.02 µM)
Summary of the method: (§1)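 Relative viability divides the nuclei count in treated wells by that in vehicle wells. Lung cancer cell lines were seeded in 1536-well plates, dosed by pin tool the next day, and fixed and stained after 5 days in one step with final 0.05% Triton X-100, 1% formaldehyde and 1 ug/ml Hoechst. Dosing was a single drug or a fixed anchor-drug dose plus five library-drug doses (not always all listed) in √10 steps, and values are medians of duplicate plates imaged at 4×.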

[2] = compound: C[C@@H](C(=O)N[C@@H](C1CCCCC1)C(=O)N2CCC[C@H]2C(=O)N[C@@H]3[C@@H](CC4=CC=CC=C34)OCC#CC#CCO[C@@H]5CC6=CC=CC=C6[C@@H]5NC(=O)[C@@H]7CCCN7C(=O)[C@H](C8CCCCC8)NC(=O)[C@H](C)NC)NC [AZD5582] + CCNC(=O)c1noc(-c2cc(C(C)C)c(O)cc2O)c1-c1ccc(CN2CCOCC2)cc1 [Luminespib] (partner 0.01 µM)
Summary of the method: as §1

[3] = compound: Cn1nnc2c(C(N)=O)ncn2c1=O [Temozolomide] + CS(=O)(=O)N1CCN(Cc2cc3nc(-c4cccc5[nH]ncc45)nc(N4CCOCC4)c3s2)CC1 [Pictilisib] (partner 1 µM)
Summary of the method: as §1

[4] = compound: Cn1nnc2c(C(N)=O)ncn2c1=O [Temozolomide] + O=C(c1cc(Cc2n[nH]c(=O)c3ccccc23)ccc1F)N1CCN(C(=O)C2CC2)CC1 [Olaparib] (partner 8 µM)
Summary of the method: as §1

| Cell Line | relative viability ([1]; first compound 0.001581 µM) | relative viability ([1]; first compound 0.005 µM) | relative viability ([1]; first compound 0.01581 µM) | relative viability ([1]; first compound 0.05 µM) | relative viability ([2]; first compound 0.001581 µM) | relative viability ([2]; first compound 0.005 µM) | relative viability ([2]; first compound 0.05 µM) | relative viability ([3]; first compound 0.2 µM) | relative viability ([3]; first compound 0.6325 µM) | relative viability ([3]; first compound 2 µM) | relative viability ([3]; first compound 6.325 µM) | relative viability ([3]; first compound 20 µM) | relative viability ([4]; first compound 0.2 µM) | relative viability ([4]; first compound 0.6325 µM) | relative viability ([4]; first compound 2 µM) | relative viability ([4]; first compound 6.325 µM) | relative viability ([4]; first compound 20 µM) | relative viability ([2]; first compound 0.01581 µM) |
| --- | --- | --- | --- | --- | --- | --- | --- | --- | --- | --- | --- | --- | --- | --- | --- | --- | --- | --- |
| NCI-H441 | 0.508 | 0.636 | 0.385 | 0.34 | 0.313 | 0.388 | 0.422 | 0.437 | 0.443 | 0.543 | 0.375 | 0.51 | 0.7 | 0.569 | 0.603 | 0.527 | 0.337 |  |
| NCI-H460 | 0.118 | 0.243 | 0.144 | 0.221 | 0.0278 | 0.039 | 0.0351 | 0.326 | 0.318 | 0.472 | 0.272 | 0.309 | 0.488 | 0.47 | 0.366 | 0.317 | 0.214 | 0.0382 |
| NCI-H520 | 0.605 | 0.784 | 0.791 | 0.708 | 0.228 | 0.276 | 0.212 | 0.243 | 0.304 | 0.312 | 0.305 | 0.326 | 0.391 | 0.33 | 0.312 | 0.284 | 0.242 | 0.247 |
| NCI-H596 | 0.738 |  | 0.8 | 0.588 |  |  | 0.551 | 0.421 | 0.404 | 0.411 | 0.385 | 0.384 | 0.685 | 0.694 | 0.764 | 0.677 | 0.657 | 0.931 |
| NCI-H647 | 0.417 | 0.477 | 0.443 | 0.47 | 0.145 | 0.149 | 0.107 | 0.419 | 0.444 | 0.406 | 0.272 | 0.216 | 0.721 | 0.616 | 0.5 | 0.176 | 0.0916 | 0.171 |
| NCI-H650 | 0.919 | 1.05 | 0.987 | 0.944 | 0.704 | 0.68 | 0.636 | 0.875 | 0.97 | 0.943 | 0.865 | 0.908 | 0.387 | 0.39 | 0.358 | 0.274 | 0.202 | 0.745 |
| NCI-H661 | 0.524 | 0.697 | 0.589 | 0.648 | 0.898 | 0.894 | 0.853 | 0.313 | 0.371 | 0.39 | 0.388 | 0.39 | 0.744 | 0.735 | 0.731 | 0.634 | 0.551 | 0.907 |
| NCI-H727 | 0.398 | 0.383 | 0.37 | 0.406 | 0.67 | 0.236 | 0.311 | 0.324 | 0.316 | 0.364 | 0.286 | 0.371 |  | 0.681 | 0.791 | 0.516 | 0.55 | 0.507 |
| NCI-H838 | 0.493 | 0.582 | 0.405 | 0.498 | 0.33 | 0.318 | 0.204 | 0.45 | 0.48 | 0.577 | 0.446 | 0.584 | 0.785 | 0.776 | 0.818 | 0.719 | 0.687 |  |
| NCI-H1355 | 0.396 | 0.444 | 0.452 | 0.409 | 0.599 | 0.674 | 0.923 | 0.433 | 0.46 | 0.427 | 0.38 | 0.39 | 0.743 | 0.753 | 0.723 | 0.646 | 0.617 | 0.606 |
| NCI-H1395 | 0.961 | 1.22 |  | 1.28 | 0.579 | 0.685 | 0.91 | 0.554 | 0.631 | 0.719 | 0.612 | 0.572 | 0.439 | 0.441 | 0.51 | 0.354 | 0.385 | 0.805 |
| NCI-H1437 | 0.43 | 0.572 | 0.461 | 0.573 | 1.11 | 0.986 | 1.14 | 0.474 | 0.539 | 0.502 | 0.521 | 0.44 | 0.614 | 0.606 | 0.632 | 0.583 | 0.523 | 1.12 |
| NCI-H1650 | 0.447 | 0.596 | 0.514 | 0.621 | 0.2 | 0.21 | 0.211 | 0.661 | 0.611 | 0.55 | 0.579 | 0.478 | 0.854 | 0.795 | 0.776 | 0.672 | 0.703 | 0.189 |
| NCI-H1651 | 0.751 | 0.847 | 0.8 | 0.946 | 0.859 | 0.904 | 0.96 | 0.567 | 0.681 | 0.654 | 0.588 | 0.613 | 0.187 | 0.177 | 0.173 | 0.145 | 0.0979 |  |
| NCI-H1666 | 0.959 | 0.864 | 0.846 | 0.852 | 0.888 | 0.931 | 0.946 | 0.433 | 0.404 | 0.394 | 0.345 | 0.298 | 0.731 | 0.729 | 0.771 | 0.639 | 0.604 | 1.01 |
| NCI-H1734 | 0.621 | 0.696 | 0.743 | 0.701 | 0.172 | 0.192 | 0.188 | 0.508 | 0.418 | 0.475 | 0.429 | 0.426 | 0.708 | 0.586 | 0.577 | 0.614 | 0.373 | 0.17 |
| NCI-H1755 | 0.761 | 0.843 | 0.802 | 0.9 | 0.259 | 0.49 | 0.437 | 0.507 | 0.447 | 0.462 | 0.413 | 0.379 | 0.905 | 0.85 | 0.926 | 0.829 | 0.568 | 0.329 |
